Measurements from patent publication US20230049952A1, “METHODS AND COMPOUNDS FOR RESTORING MUTANT P53 FUNCTION” (PMV Pharmaceuticals, Inc., priority 2020, published 2023).
Read-outs that look alike come from different tables or passages of the source.

What was measured:
MT373 tumors = format: in vivo; conditions: 75 and 150 mg/kg BID×1 PO
Description: Randomization and Study Setup: Implanted animals were monitored for palpable tumors. Eighteen days post implant the animals with palpable tumors had their tumor sizes determined via digital caliper. Mice were selected and randomized into three treatment groups according to tumor size. Average tumor volume (mm^3) and body weight (g) are described in TABLE 17. Treatment began on the eighteenth day post-implant to facilitate twice daily dosing.
Measurements and Calculation of Tumor Volume: Tumor volume was calculated using the following equation: (longest diameter×shortest diameter^2)/2. Individual tumor volumes and body weight measurements were taken at the final timepoint. The calculation for percent tumor growth inhibition (TGI) is as follows: [1−((Tt−T0/Ct−C0))]×100, where Ct is the mean tumor volume of the vehicle control group at time t, C0 is the mean tumor volume of the vehicle control group at time 0, and T is the mean tumor volume of the treatment group. Tumor regression was determined with the equation [(T0−Tt)/T0]×100 using the same definitions.

[1] = for Plasma Conc. / Tumor Conc.: MT373 tumor-bearing mice

Compound: CCn1c(C#CCNc2ccccc2)cc2cc(CNC3CCN(C)CC3)ccc21 [Compound 1, 1-Anilino-3-{1-ethyl-5-[(1-methyl-4-piperidylamino)methyl]-1H-indol-2-yl}-2-propyne]
- tolerability (MT373 tumors): well tolerated
- Plasma Conc. ([1]; 75 mg/kg BIDx1 PO, 8 h): 8375 ng/mL
- Tumor Conc. ([1]; 75 mg/kg BIDx1 PO, 8 h): 30853 ng/g
- Plasma Conc. ([1]; 75 mg/kg BIDx1 PO, 24 h): 1843 ng/mL
- Tumor Conc. ([1]; 75 mg/kg BIDx1 PO, 24 h): 12035 ng/g
- Plasma Conc. ([1]; 75 mg/kg BIDx1 PO, 48 h): 40 ng/mL
- Tumor Conc. ([1]; 75 mg/kg BIDx1 PO, 48 h): 318 ng/g
- Plasma Conc. ([1]; 75 mg/kg BIDx1 PO, 72 h): 0 ng/mL
- Tumor Conc. ([1]; 75 mg/kg BIDx1 PO, 72 h): 97 ng/g
- Plasma Conc. ([1]; 75 mg/kg BIDx1 PO, 98 h): 0 ng/mL
- Tumor Conc. ([1]; 75 mg/kg BIDx1 PO, 98 h): 0 ng/g
- plasma concentration ([1]; 75 mg/kg BID×1 PO, 8 h (Cmax)): 8375 ng/mL
- plasma concentration ([1]; 75 mg/kg BID×1 PO, 24 h): 1843 ng/mL
- Plasma Conc. ([1]; 150 mg/kg BIDx1 PO, 8 h): 11435 ng/mL
- Tumor Conc. ([1]; 150 mg/kg BIDx1 PO, 8 h): 57645 ng/g
- Plasma Conc. ([1]; 150 mg/kg BIDx1 PO, 24 h): 5986 ng/mL
- Tumor Conc. ([1]; 150 mg/kg BIDx1 PO, 24 h): 67778 ng/g
- Plasma Conc. ([1]; 150 mg/kg BIDx1 PO, 48 h): 268 ng/mL
- Tumor Conc. ([1]; 150 mg/kg BIDx1 PO, 48 h): 2436 ng/g
- Plasma Conc. ([1]; 150 mg/kg BIDx1 PO, 72 h): 7 ng/mL
- Tumor Conc. ([1]; 150 mg/kg BIDx1 PO, 72 h): 59 ng/g
- Plasma Conc. ([1]; 150 mg/kg BIDx1 PO, 98 h): 3 ng/mL
- Tumor Conc. ([1]; 150 mg/kg BIDx1 PO, 98 h): 23 ng/g
- plasma concentration ([1]; 150 mg/kg BID×1 PO, 8 h (Cmax)): 11435 ng/mL
- plasma concentration ([1]; 150 mg/kg BID×1 PO, 24 h): 5986 ng/mL
